Results published in patent US7186754B2, “Use of creatine or creatine compounds for skin preservation” (Avicena Group, Inc., priority 1999, dated 2007).

Experiments:
[1] = system: patients with cardiac diseases; details: up to 8 grams/day, intravenous injection; cited from earlier work
[2] = system: striatal tissue after malonate injections; assay: salicylate hydroxyl radical trapping and 3-nitrotyrosine in striatum after intrastriatal malonate injection; assay type: in vivo; details: 1% in diet for two weeks before intrastriatal malonate, FIG. 3
Description: FIG. 3 depicts the production of 2,3 and 2,5 DHBA and 3 nitrotyrosine after intrastriatal injection of malonate in control animals fed with creatine and those fed with cyclocreatine. **p is less than 0.01 compared with uninjected side; #p is less than 0.05 compared with DHBA elevation in controls. Eight animals were used in each group.
The salicylate hydroxyl radical-trapping method was used for measuring levels of hydroxyl radicals in striatal tissue after malonate injections. Eight animals in each group were fed either a normal diet or a diet enriched with 1% creatine or 1% cyclocreatine for two weeks before intrastriatal malonate injections. Animals were injected with 200 mg/kg salicylate intraperitoneally just before the malonate injections and were killed 1 hour later. […] An aliquot of supernatant was analyzed by HPLC with the 16-electrode electrochemical detection (Beal et. al., 1990). Salicylate, 2,3 and 2,5 DHBA, tyrosine, 3-nitrotyrosine were measured electrochemically by oxidation at 840, 240, 120, 600 and 840 mV respectively with retention times of 20.5, 9.4, 6.3, 10.5, 18.2 min respectively. The data were expressed as the ratio of 2,3 and 2,5 DHBA to salicylate to normalize the DHBA concentrations for differing brain concentrations of salicylate. […] 3-Nitrotyrosine and tyrosine concentrations were measured by HPLC with electrochemical detection (Matthews 1998). […]

[3] = 1% dietary cyclocreatine; cited from earlier work
chicks = details: 1% cyclocreatine in diet, newly hatched chicks, cited from earlier work
mice = details: up to 1% of diet for 2 weeks or over 4 weeks; cited from earlier work
mice, rats and chicks = details: fed to mice; cited from earlier work
[4] = cited from earlier work
creatine kinase = details: forward reaction, in vitro and in vivo; cited from earlier work

Molecule	adverse side effects [1]	nitration of proteins (3-nitrotyrosine) induced by malonate [2]	levels of salicylate derivatives 2,3 DHBA and 2,5 DHBA after malonate ([2]; killed 1 hour later)	antiviral activity [3]	mortality (chicks; in the presence of antibiotics)	growth compared with control chicks (chicks)	gross adverse effects (mice)	tolerability (mice, rats and chicks)	accumulation in different organs ([4]; animals fed e.g. 1% dietary cyclocreatine, mM concentrations)	uptake by muscle, heart and brain ([4]; rats receiving dietary 1% cyclocreatine)	phosphorylation by creatine kinase (creatine kinase)
N-phosphoryl creatine [creatine phosphate]	no adverse side effects	–	–	–	–	–	–	–	–	–	–
NC1=NCCN1CC(=O)O [cyclocreatine, 1-carboxymethyl-2-iminoimidazolidine]	–	protective effects	protect against increases	observed	without significant mortality	grew more slowly	without gross adverse effects	well-tolerated	accumulation of cyclocreatine in different organs in mM concentrations	taken up by muscle, heart and brain	phosphorylated efficiently
